Results published in US20070275923A1, “CATIONIC PEPTIDES FOR siRNA [sequence] [sequence]” (NASTECH PHARMACEUTICAL COMPANY INC., priority 2006, published 2007).
Residues, ends and D or L forms follow the SMILES beside them.

Key:
[1] = system: Mouse tail fibroblast (MTF) cells; test: siRNA cell-uptake and MFI measured by FACS after peptide-mediated transfection of labeled siRNA; format: cell-based; details: for % Cell-Uptake: % of total cells with intracellular labeled siRNA; for MFI: relative value
Description: SiRNA cell uptake was measured by FACS.
For the instant example, cell-uptake, mean fluorescent intensity (MFI) and cell viability was measured for each peptide. siRNA cell-uptake was measured by the presence of intracellular labeled siRNA. The cell-uptake assay determined the percentage of cells that contain the labeled siRNA. Mean Fluorescence Intensity (MFI) was used to determine the relative mean quantity of labeled siRNA that entered the cells.
A non-transfection, siRNA alone, control was also performed.
Within Table 3, “ND” means no data.

in vitro = details: C57BL/6J, mouse, mouse tail fibroblast (MTF) cells
Description: Mouse tail fibroblast (MTF) cells were derived from the tails of C57BL/6J mice. Tails were removed, immersed in 70% ethanol and then cut into small sections with a razor blade. The sections were washed three times with PBS and then incubated in a shaker at 37° C. with 0.5 mg/mL collagenase, 100 units/mL penicillin and 100 μg/mL streptomycin to disrupt tissue. Tail sections were then cultured in complete media (Dulbecco's Modified […] Medium with 20% FBS, 1 mM sodium pyruvate, nonessential amino acids and 100 units/mL penicillin and 100 μg/mL streptomycin) until cells were established. Cells were cultured at 37° C., 5% CO2 in complete media as outlined above.
Cells were be plated per well in a microtiter plate the day before transfection in complete media. The siRNA was be labeled, for example with a FAM, Alexa488, Alexa647 or Cy-5 conjugate. The cationic polymer peptide and siRNA were mixed in the microtiter plate complex with cells previously with OptiMEM. 7-AAD was added to each transfection to measure cell viability. Cells were transfected for three hours at 37° C., 5% CO2. The transfection mixture was removed and the cells were washed with TE buffer for about 10 minutes at 37° C., 5% CO2. Transfected cells were transferred to a V bottom plate and centrifuged. The TE buffer was removed and the transfected cells were resuspended in fluorescence activated cell sorting (FACS) buffer.
A non-transfection, siRNA alone, control was also performed. The peptide PN183 served herein as a positive cell-uptake control.
Cell-uptake is expressed as a percentage of the total cells with intracellular labeled siRNA. Cell Viability is also expressed as a percentage where 100% represents 100% viability. The MFI value is a relative value with a higher MFI value indicating a greater amount of labeled siRNA entered the cell. Within Table 3, “ND” means no data.

[2] = peptide concentration 1 μM, 200 nM labeled siRNA
[3] = peptide concentration 1 μM, 200 nM labeled siRNA, higher = more labeled siRNA entered the cell
[4] = peptide concentration 10 μM, 200 nM labeled siRNA
[5] = peptide concentration 10 μM, 200 nM labeled siRNA, higher = more labeled siRNA entered the cell
[6] = peptide concentration 100 μM, 200 nM labeled siRNA
[7] = peptide concentration 100 μM, 200 nM labeled siRNA, higher = more labeled siRNA entered the cell

Row | Molecule | % Cell-Uptake [1, 2] | MFI [1, 3] | % Cell-Uptake [1, 4] | MFI [1, 5] | % Cell-Uptake [1, 6] | MFI [1, 7] | viability at 3 h, 1 µM (in vitro) | viability at 3 h, 10 µM (in vitro) | viability at 3 h, 100 µM (in vitro) | percent cell-uptake ([1]; concentration not given) | MFI ([1]; concentration not given) | intracellular delivery of siRNA (verbal conclusion from cell-uptake and cell viability) ([1]; conclusion drawn from Table 3)
1 | CC[C@H](C)[C@H](NC(=O)[C@H](CCCCN)NC(=O)[C@@H](NC(=O)[C@H](CCC(N)=O)NC(=O)[C@H](CCCNC(=N)N)NC(=O)[C@H](CS)NC(=O)[C@@H](NC(=O)[C@H](CO)NC(=O)[C@H](CCCNC(=N)N)NC(=O)[C@H](Cc1c[nH]cn1)NC(=O)[C@H](Cc1c[nH]cn1)NC(=O)[C@H](Cc1c[nH]cn1)NC(=O)[C@H](Cc1c[nH]cn1)NC(=O)[C@H](Cc1c[nH]cn1)NC(=O)[C@@H](N)Cc1c[nH]cn1)C(C)C)[C@@H](C)CC)C(=O)N[C@@H](CS)C(=O)N[C@@H](CCCNC(=N)N)C(=O)N[C@@H](CCCNC(=N)N)C(=O)N[C@@H](CCCNC(=N)N)C(=O)NCC(=O)NCC(=O)N[C@@H](CS)C(=O)N[C@@H](Cc1ccc(O)cc1)C(=O)N[C@@H](Cc1ccc(O)cc1)C(=O)N[C@@H](CCCCN)C(=O)N[C@@H](CS)C(=O)N[C@H](C(=O)N[C@@H](CC(N)=O)C(=O)N[C@@H](CCCNC(=N)N)C(=O)N1CCC[C@H]1C(=O)N[C@@H](Cc1ccc(O)cc1)C(N)=O)[C@@H](C)O [PN951] (H-HHHHHHRSVCRQIKICRRRGGCYYKCTNRPY-NH2) | 31.8% | 4.02 | 80.1% | 14.3 | 45.7% | 9.19 | 97.2% | 99.1% | 97.9% | – | – | –
2 | H-KETWWETWWTEWSQPGRKKRRQRRRPPQ-NH2 [PN183, reference compound] | 9.3% | 3.61 | 47.4% | 3.77 | 58.9% | 10.5 | 96% | 96.8% | 76.7% | approximately 59% | ~11 | –
3 | H-KHKHKHKHKHKHKHKHKHKH-NH2 [PN938, NH2-(Lys-His)10-amide] | 0.6% | – | 0.5% | – | 5.9% | – | 97.9% | 98.6% | 98.8% | – | – | –
4 | H-KHKHKHKHKHKHKHKHKHKHKHKHKHKHKH-NH2 [PN935, NH2-(Lys-His)15-amide] | 20.3% | 1.94 | 36.1% | 2.2 | 24.6% | 2.16 | 98.1% | 97.3% | 96.6% | – | – | effective intracellular delivery of siRNA without negatively impacting cell viability
5 | H-KKKKKKKKKK-NH2 [PN932, NH2-(Lys)10-amide] | 0.4% | – | 1% | – | 1% | – | 97.3% | 96.7% | 98.4% | – | – | –
